We go through three molecules from PMC7996082, “The translocator protein ligands as mitochondrial functional modulators for the potential anti-Alzheimer agents” (Journal of Enzyme Inhibition and Medicinal Chemistry, 2021).

In assay [1] the test system is HT22 cells treated with Aβ. The assay can be described thus: Cellular ROS assay (DCFDA): inhibition of Aβ-induced ROS generation. It is filed as cell-based, mouse. The settings on record: Mus musculus, HT-22, 5 μM compound. How it is done: Among 56 compounds, 23 compounds were selected and further tested for the luciferase-based ATP assay. […] Thus, we chose these two compounds and further evaluated their biological activity by measuring cell viability and reactive oxygen species (ROS) production. The effects on cell viability of each compound under Aβ-induced cytotoxicity were determined by measuring the metabolic activity of NAD(P)H-dependent cellular oxidoreductases using the 3–(4,5-dimethylthiazol-2-yl)-2,5-diphenyl-tetrazolium bromide (MTT) dye. To measure cellular ROS levels, we used a fluorescence indicator, 2′,7′-dichlorofluorescein diacetate (DCFDA), and calculated the percent inhibition of ROS generation by applying the same method used for MTT assays. Compound 7 inhibited Aβ-induced ROS generation (97% at 5 µM) almost to the level of the untreated control (Table 1). […] On the basis of the in vitro activity, we selected compound 7 as the best hit from the initial screening library.

In assay [2] the test system is transgenic AD model mice (APPswe/PSEN1dE9). In words: Y-maze spontaneous alternation test in transgenic AD model mice. As to conditions: Tg APPswe/PSEN1dE9 mice, 30 mg/kg daily, 1 month, PO. The class given is in vivo, mouse.
The test system is the same in assay [3]. In words: Contextual fear conditioning test in transgenic AD model mice. As to conditions: Tg AD model mice, 30 mg/kg daily, 1 month, PO. The class given is in vivo, mouse. Here is the method: The acute AD mice model was prepared by administration of Aβ1-42 solution (10% DMSO/90% PBS) to male ICR mice (6 weeks old, 30 − 33 g) via intracerebroventricular (ICV) injection (Aβ1-42 dose: 500 pmol/mouse) as described previously. The wild type mice (B6C3F1) and double APP/PS1 transgenic mice (Tg AD mice model; APPswe/PSEN1dE9) were purchased from Jackson Laboratory (Bar Harbour, ME, USA). The Tg AD model mice were 11 months old at the beginning of the behaviour test, and were housed for 1 month in a room under controlled temperature and fed ad libitum. The behaviour tests were conducted during daytime in air-controlled and soundproof experiment room. The animal experiments were abided by the guidelines of the Institutional Animal Care and Use Committee of Korea Institute of Science and Technology.
To the Tg mice of the AD model (n = 7 per group), each test compound (30 mg/kg) was orally administrated daily for 1 month. […] Freezing response was measured by the fear conditioning system without application of CS or US.
In addition, we assessed recovery effects of compound 7 by performing contextual fear conditioning tests.[40] Healthy mice show higher number of total freezing, which is an index of fear learning and memory of rodents; therefore, the number of total freezing responses under fear-relevant stimuli was measured with the compound-treated Tg AD model mice. […]

The target of another assay is T1, recombinant human TSPO (Homo sapiens, UniProt P30536).
T1 construct: purchased Origene Technologies, Inc. TP320107
T1 sequence (P30536 whole entry): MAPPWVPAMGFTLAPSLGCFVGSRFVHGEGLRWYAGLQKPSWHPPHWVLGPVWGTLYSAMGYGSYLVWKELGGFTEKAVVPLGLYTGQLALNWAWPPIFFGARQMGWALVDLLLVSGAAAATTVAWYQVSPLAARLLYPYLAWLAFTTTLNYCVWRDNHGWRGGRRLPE
In words: Surface plasmon resonance (SPR) binding affinity. As to conditions: mean ± SD of three measurements. Here is the method: To determine the binding affinities of the selected compounds, the KD values were measured by using Biacore T200 optical biosensor system (GE Healthcare). The recombinant human TSPO (18 kDa, Origene Technologies, Inc., No.: TP320107) was covalently immobilised on a CM5 chip (GE Healthcare) at 25 °C via standard amine-coupling protocols in 10 mM sodium acetate (pH 4.5) at a flow rate of 10 µL/min for 1500s (immobilised protein densities: 5,000–6,000 response unit (RU)). The tested compounds were initially prepared at 10 mM in DMSO, and serially diluted in PBS-P buffer (10 mM NaH2PO4, 150 mM NaCl, pH 7.4) to 1% DMSO. For each tested compound, the kinetic values were measured using a five-point concentration series, 0.001, 0.01, 0.5, 1, and 5 µM. Multiple blank samples of running buffer alone (0 µM of tested compounds) were incorporated in every measurement. The filtered PBS-P buffer containing 1% DMSO was used as a running buffer during the SPR experiments. To measure the kinetic values, a series of different concentrations were injected over the immobilised chip at a flow rate of 50 µL/min (contact time: 120 s, dissociation time: 300 s), followed by the regeneration process at a flow rate of 50 µL/min (contact time: 120 s, stabilisation time: 10 s). The KD value of each compound was calculated by Biacore T200 evaluation software (GE Healthcare) after the standard solvent correction process.

By inhibition is commonly meant the drop in the measured response relative to a control, in per cent. Higher therefore signals a response far below the control. The Kd is the constant that tells how readily two partners part at equilibrium. Regarding `CCOc1ccc(-n2c(SCC(=O)Nc3ccc(OC)c(OC)c3)nc3sc4c(c3c2=O)CCN(C(C)=O)C4)cc1` [Compound 7], in assay [1], at 5 µM the inhibition was 97%. The “Recovery of Y-maze spontaneous alternations” value in assay [2] was 50%. Moreover, the “Contextual fear conditioning: percent recovery of freezing” value in assay [3] came out at 62%. Also, the dissociation constant (Kd) at recombinant human TSPO worked out at 630 ± 330 nM.
On to `CCOc1ccc(-n2c(SCC(=O)NCc3ccccc3)nc3sc4c(c3c2=O)CCN(C(C)=O)C4)cc1` [Compound 31], for which the dissociation constant (Kd) on recombinant human TSPO came to 1250 ± 400 nM.
Still for that read-out and setting: the figure for `CCOc1ccc(-n2c(SCC(=O)N3CCN(c4ccccc4)CC3)nc3sc4c(c3c2=O)CCN(C(C)=O)C4)cc1` [Compound 44] is 2740 ± 660 nM.
